According to patent publication US20070043122A1, “Use of 2,2,3,3, tetramethylcyclopropane carboxylic acid derivatives for treating psychiatric disorders” (YISSUM RESEARCH DEVELOPMENT CO. OF THE HEBREW UNIVERSITY OF …, priority 2003, published 2007):
Like-named read-outs stand apart in the source and are kept apart here. Each block holds one molecule with its values, some of them ahead of it.

Tests used:
[1] = molecular target: T1, human brain MIP synthase (Homo sapiens, UniProt Q9NPH2); assay: Human brain MIP synthase activity in postmortem prefrontal cortex homogenate; format: biochemical; details: for Ki: human brain homogenate; for inhibited MIP synthase activity (which of the other psychotropic drugs): at concentrations 1.5 times greater than their upper therapeutic range (concentrations in Table 2)
T1 construct: supernatant fraction obtained after sonication; from tissue; host or cells: postmortem human prefrontal cortex, 9,000 x g supernatant of sonicated homogenate
T1 sequence (Q9NPH2 1-558): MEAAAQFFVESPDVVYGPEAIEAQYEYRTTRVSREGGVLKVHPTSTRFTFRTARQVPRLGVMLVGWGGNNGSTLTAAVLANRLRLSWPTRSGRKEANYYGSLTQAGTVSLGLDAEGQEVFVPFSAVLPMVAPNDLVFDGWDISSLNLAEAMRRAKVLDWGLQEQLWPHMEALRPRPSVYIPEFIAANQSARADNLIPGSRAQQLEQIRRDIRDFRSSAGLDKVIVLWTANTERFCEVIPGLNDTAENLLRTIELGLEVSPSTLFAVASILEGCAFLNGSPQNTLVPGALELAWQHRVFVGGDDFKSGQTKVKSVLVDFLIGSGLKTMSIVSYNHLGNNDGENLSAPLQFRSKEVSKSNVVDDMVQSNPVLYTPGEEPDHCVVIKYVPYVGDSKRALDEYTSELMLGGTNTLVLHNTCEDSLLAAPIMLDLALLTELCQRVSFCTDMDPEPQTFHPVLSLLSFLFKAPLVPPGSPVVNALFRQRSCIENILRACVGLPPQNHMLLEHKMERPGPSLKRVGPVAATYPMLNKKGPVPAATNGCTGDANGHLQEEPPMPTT
Method: Human brain MIP synthase activity. Five μl of the supernatant fraction obtained after sonication (Ultrasonic Processor, Newtown, Conn., 15 sec at 0.1 output watts at 4° C.) and centrifugation for 20 min at 9,000×g at 4° C. of postmortem human prefrontal cortex (1 mg wet weight in 0.5 ml of 50 mM Tris HCl, pH 7.4) were added to 20 μl reaction mixture containing 4 mM D-glucose-6-phosphate, 1.25 μCi D-glucose-6-phosphate [^14C], 1.6 mM NAD^+, 0.45 mM KCl, 5.4 mM MgCl2 and 0.9 mM Tris HCl, pH 7.6, with or without 5 mU IMPase (Sigma, St. Louis). Incubation with or without various drugs concentrations (table 2 and table 3) was carried out for 3 hours (within the linear range) at 37° C. The reaction was stopped by adding 50 μl cold double distilled water (ddH20). Seventy out of the 80 μl were added to test tubes containing 1.25 g strong basic anion resin (Amberjet 4200, Rohm and Haas, Philadelphia) in 1 ml ddH2O. The mixtures were vortexed for 10 min, then centrifugated for 10 min at 10,000×g at room temperature, and 200 μl supernatant taken for ^14C counting (Liquid Scintillation Counter, Kontron, Basel). The enzymatic activity was calculated by subtracting values without IMPase from the measures with IMPase. The measurements were carried out in triplicate.
Table 2 details the drugs and their concentrations compared with their therapeutic concentrations, studied for possible inhibition of human brain MIP synthase activity. Each drug was tested twice, each experiment in triplicate.

[2] = tested on: neural tube defects (NTDs); details: in vivo; cited from earlier work
[3] = molecular target: T2, IMPase (Homo sapiens, UniProt P29218); details: cited from earlier work
T2 sequence (P29218 1-277): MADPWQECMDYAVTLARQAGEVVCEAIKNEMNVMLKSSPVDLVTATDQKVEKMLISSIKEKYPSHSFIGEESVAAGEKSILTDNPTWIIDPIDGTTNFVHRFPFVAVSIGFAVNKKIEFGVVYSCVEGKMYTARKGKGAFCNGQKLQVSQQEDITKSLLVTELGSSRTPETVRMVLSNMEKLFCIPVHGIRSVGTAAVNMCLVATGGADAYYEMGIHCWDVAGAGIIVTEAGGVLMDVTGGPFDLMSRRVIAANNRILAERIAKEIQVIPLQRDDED

[4] = tested on: growth cones of newborn rat dorsal root ganglia (DRG) cells; details: reversed by addition of myo-inositol; cited from earlier work
[5] = tested on: whole brain inositol levels; assay: Whole brain inositol levels in mice after chronic VPA administration; format: in vivo; details: for mice whole brain inositol levels: means ± S.E.M.
Method: (§1) Animals. The study was approved by the Ben-Gurion University (Beer Sheva, Israel) Institutional Review Committee for the Use of Animals, and the procedures were carried out in compliance with the declaration of the National Institute of Health Guide for care and use of laboratory animals [Council N R, editor. Guide for the care and use of laboratory animals. Washington, D.C.: National Academy Press; 1996]. […] J Neurochem 1999; 72(2):879-82] which approximate therapeutically-relevant plasma levels. […] Prog Neurobiol 1999; 58(1):31-59]. One saline-injected group was sacrificed right after the injection. All other four groups were sacrificed one hour after the injection. Frontal cortex was removed from all mice right after sacrifice and frozen (−70° C.) till further processing. […] Mice of group II (n=13, controls) were injected saline (IP) twice a day. Animals were then sacrificed, brain removed and dealt as above.
Gas chromatographic measurement of brain inositol levels. Mouse brain free inositol levels were analyzed as trimethylsilyl (TMS) derivatives by gas-liquid chromatography (GC), as described in Shapiro J et al [Shapiro J, Belmaker R H, Beigon A, Seker A, Agam G. Scyllo-Inositol in Post-Mortem Brain of Suicide Victims, Bipolar, Unipolar and Schizophrenic Patients. J Neural Transm 2000; 107: 603-607] using a capillary column. […] Replicate reliability was tested in rat brain. […] Each sample extract was assayed at least in duplicate. The results presented are the average of the replicates. Assays were performed in a blind and balanced design such that each run included samples from all comparison groups.

[6] = 400 mg/kg/day IP twice daily for 9 or 28 days; cited from earlier work
[7] = tested on: frontal cortex inositol levels; assay: Frontal cortex inositol levels in mice after a single dose of VPA (gas chromatography); format: in vivo; details: acute, single IP dose 300, 600, 800 mg/kg, sacrificed one hour after injection; all concentrations tested
Method: as §1
Gas chromatographic measurement of brain inositol levels. Mouse brain free inositol levels were analyzed as trimethylsilyl (TMS) derivatives by gas-liquid chromatography (GC), as described in Shapiro J et al [Shapiro J, Belmaker R H, Beigon A, Seker A, Agam G. Scyllo-Inositol in Post-Mortem Brain of Suicide Victims, Bipolar, Unipolar and Schizophrenic Patients. J Neural Transm 2000; 107: 603-607] using a capillary column. […] Replicate reliability was tested in rat brain. […]

[8] = tested on: growth cones of rat DRGs; assay: Growth cone spreading in rat neuron DRG explants; format: cell-based; details: 1 mM, 24 hour exposure
Method: Rat neuron DRG (dorsal root ganglia) explants. […] After 24 hours for attachment, cytosine β-arabinofuranoside (ara-C, 10 μM) was added for 24 hours to kill non-neuronal cells. […] The explants were then fixed in 4% paraformaldehyde in PBS (Phosphate buffered saline) for 20 minutes at room temperature. Growth cones were analysed on an inverted microscope (Zeiss Axiovert) and measured using an NIH Image software.

SMILES: CNC(=O)C1C(C)(C)C1(C)C [M-TMCD, N-methyl-2,2,3,3-tetramethylcyclopropanecarboxamide]
inhibition at 1300 µM ([1]; read-out: Inhibition of human brain MIP synthase activity): 93%
teratogenicity [2]: lack of teratogenicity

inhibition at 1000 µM ([1]; 1.0 mM): 100%
Ki ([1]; read-out: Ki for MIP synthase (Dixon's plot)): 210 µM
Ki ([1]; read-out: Ki for MIP synthase (Lineweaver-Burk plot)): 240 µM
SMILES: CCCC(CCC)C(=O)O [VPA, valproic acid]
effect on IMPase activity [3]: no effect
effect on spreading of growth cones of newborn rat DRG cells [4]: increased spreading
mice whole brain inositol levels ([5]; IP injection of VPA twice a day, 400-800 mg/kg/day, fourteen days): 27.9 ± 3.2
mice whole brain inositol levels ([5]; VPA in drinking water (12.5 g/liter) for 11 days): 30.1 ± 1.7
effect of chronic VPA on brain inositol levels ([5]; eleven days in drinking water or 14 days IP injection): did not deplete brain inositol levels
blood VPA levels [6]: 0.27 ± 0.02 mM
reduction in frontal cortex inositol concentration [7]: 20%

inhibition at 1400 µM ([1]; 1.4 mM): 34%
SMILES: CCCC(CCC)C(N)=O [VPD, valpromide]
effect on growth cone spreading of DRGs [8]: no increased growth cone spreading

inhibited MIP synthase activity (which of the other psychotropic drugs) [1]: None
SMILES: NC(=O)N1c2ccccc2C=Cc2ccccc21 [carbamazepine]
effect on spreading of growth cones of newborn rat DRG cells [4]: increased spreading

inhibited MIP synthase activity (which of the other psychotropic drugs) [1]: None
SMILES: CN(C)CCCN1c2ccccc2Sc2ccc(Cl)cc21 [chlorpromazine]

inhibited MIP synthase activity (which of the other psychotropic drugs) [1]: None
SMILES: CN(C)CCCN1c2ccccc2CCc2ccc(Cl)cc21 [clomipramine]

inhibited MIP synthase activity (which of the other psychotropic drugs) [1]: None
SMILES: O=C(CCCN1CCC(O)(c2ccc(Cl)cc2)CC1)c1ccc(F)cc1 [haloperidol]

inhibited MIP synthase activity (which of the other psychotropic drugs) [1]: None
SMILES: CN(C)CCCN1c2ccccc2CCc2ccccc21 [imipramine]

inhibited MIP synthase activity (which of the other psychotropic drugs) [1]: None
SMILES: O=C1NC(=O)C(c2ccccc2)(c2ccccc2)N1 [phenytoin]
